Target: T1, PEXANL1 (Aspergillus niger, UniProt A0A5C2GD86)
T1 construct: mature peptide (278 residues of 297, signal peptide removed), extra N-terminal residues, C-terminal 6xHis kept; secreted from Pichia pastoris GS115 (pPIC9K, codon-optimised), Ni-NTA purified, Endo Hf deglycosylated
T1 sequence (A0A5C2GD86 20-297): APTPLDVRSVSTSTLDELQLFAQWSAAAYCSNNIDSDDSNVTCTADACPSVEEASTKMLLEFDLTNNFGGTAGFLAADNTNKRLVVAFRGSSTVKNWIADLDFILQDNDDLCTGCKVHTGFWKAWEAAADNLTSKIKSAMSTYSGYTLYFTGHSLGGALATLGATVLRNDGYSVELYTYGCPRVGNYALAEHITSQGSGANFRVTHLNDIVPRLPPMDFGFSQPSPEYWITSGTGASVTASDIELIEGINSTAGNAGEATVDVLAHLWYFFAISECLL
Assay: ultrasound-assisted solvent-free esterification, HPLC of glycerides
Type: biochemical
Details: 40 °C, ultrasound 200 W, 40 kHz

Question: `OCC(O)CO` [glycerol] was tested. Which “ultrasound-assisted solvent-free esterification, HPLC of glycerides” value (co-substrate oleic acid (glycerol to oleic acid 5:1 molar)) did it give?
Answer: Ultrasound-assisted esterification of oleic acid (OA) with glycerol was studied

Question: Which “ultrasound-assisted solvent-free esterification, HPLC of glycerides” value (co-substrate glycerol (glycerol to oleic acid 5:1 molar)) does the source give for `CCCCCCCC/C=C\CCCCCCCC(=O)O` [oleic acid] here?
Answer: Ultrasound-assisted esterification of oleic acid (OA) with glycerol was studied
